Measured values taken from patent publication US20230174554A1, “SOLID FORM OF MACROCYCLIC COMPOUND, PREPARATION THEREFOR AND USE THEREOF” (Shenzhen TargetRx. Inc., priority 2020, published 2023).
In brackets after ≈: the same amount, converted by molar mass.

Legend:
Format in all cases: physicochemical
[1] = Heating study to 190° C. with XRPD (trans-crystallization); conditions: heated to 190° C.
Experimental: A certain amount of compound A crystal form V and VI were weighed, heated to 190° C. and then characterized by XRPD.

[2] = Stability influencing factor tests of compound A crystal form I (high temperature, high humidity, illumination)
Experimental: Stability influencing factor tests were carried out on the samples of compound A crystal form I. The corresponding placement conditions and test results are listed in Table 5.

[3] = Solubility of the starting material (compound A crystal form I) in different solvents
[4] = Dynamic moisture adsorption and desorption analysis (DVS), hygroscopicity, XRPD after test
Experimental: The samples were tested for hygroscopicity using DVS Intrinsic (SMS, UK). 30-50 mg of a sample was placed into a sample pan, and the change of sample mass with humidity at 25° C. was recorded. The instrument parameters were:
After the hygroscopicity test was completed, the crystal form of the sample was tested by XRPD.

[5] = Accelerated stability study of the free base and crystalline salts (40° C./75% RH and 60° C., HPLC and XRPD)
Experimental: The crystals were tested for HPLC and XRPD in different time points.

[6] = Solubility and stability of the free base and crystalline salts in water, SGF, FaSSIF and FeSSIF; conditions: for Crystal form / crystallinity in the vehicle: XRPD
Source text: The solubility and stability of compound A crystal form, compound A maleate crystal form I and compound A acetate crystal form I in water, SGF (simulated gastric fluid), FaSSIF (simulated intestinal fluid in fasted state) and FeSSIF (simulated intestinal fluid in fed state) were studied.

[7] = Competitive slurrying testing at room temperature (trans-crystallization); conditions: isobutanol, isopropanol and methyl tert-butyl ether, one day
Experimental: 10 mg of compound A crystal form I, crystal form IV, crystal form V and crystal form VI were added to 500 μL of three different solvent systems (isobutanol, isopropanol and methyl tert-butyl ether), respectively. The mixture was slurried at room temperature for one day. The solids were dried at 50° C. under vacuum overnight and characterized by XRPD.

[8] = High humidity (92.5% RH/25° C.), 0 days
[9] = High humidity (92.5% RH/25° C.), 5 days
[10] = High humidity (92.5% RH/25° C.), 10 days
[11] = High humidity (92.5% RH/25° C.), 37 days
[12] = High temperature (60° C.), 0 days
[13] = High temperature (60° C.), 5 days
[14] = High temperature (60° C.), 10 days
[15] = High temperature (60° C.), 37 days
[16] = Illumination (1.2*10^6 Lux · hr, 200 w · hr/m^2), 0 days
[17] = Illumination (1.2*10^6 Lux · hr, 200 w · hr/m^2), 5 days
[18] = Illumination (1.2*10^6 Lux · hr, 200 w · hr/m^2), 10 days
[19] = FaSSIF (simulated intestinal fluid in fasted state), 37 °C, fassif, thermodynamic from solid, sample 10 mg/ml
[20] = FeSSIF (simulated intestinal fluid in fed state), 37 °C, fessif, thermodynamic from solid, sample 10 mg/ml
[21] = SGF (simulated gastric fluid), 37 °C, simulated gastric fluid, thermodynamic from solid, SGF, sample 10 mg/ml
[22] = water, thermodynamic from solid, H2O, room temperature, sample 5 mg/ml

[2H]C([2H])([2H])n1nc2c(c1C#N)-c1cnc(N)c(c1)O[C@H](C)c1cc(F)ccc1C(=O)N(C)C2 [compound A crystal form V, (10R)-7-amino-12-fluoro-2-(methyl-d3)-10,16-dimethyl-15-oxo-10,15,16,17-tetrahydro-2H-8,4-(metheno)pyrazolo[4,3-h][2,5,11]benzoxadiazacyclotetradecine-3-carbonitrile]
Crystal form after heating [1]: transformed into crystal form I

[2H]C([2H])([2H])n1nc2c(c1C#N)-c1cnc(N)c(c1)O[C@H](C)c1cc(F)ccc1C(=O)N(C)C2 [compound A crystal form I, (10R)-7-amino-12-fluoro-2-(methyl-d3)-10,16-dimethyl-15-oxo-10,15,16,17-tetrahydro-2H-8,4-(metheno)pyrazolo[4,3-h][2,5,11]benzoxadiazacyclotetradecine-3-carbonitrile]
Content [2, 8]: 99.9% | Shape [2, 8]: White solid | Total impurity content [2, 8]: <0.05% | Content [2, 9]: 99.5% | Shape [2, 9]: White solid | Total impurity content [2, 9]: <0.05% | Content [2, 10]: 99.7% | Shape [2, 10]: White solid | Total impurity content [2, 10]: <0.05% | Content [2, 11]: 99.4% | Shape [2, 11]: White solid | Total impurity content [2, 11]: <0.05% | Content [2, 12]: 99.9% | Shape [2, 12]: White solid | Total impurity content [2, 12]: <0.05% | Content [2, 13]: 98.8% | Shape [2, 13]: White solid | Total impurity content [2, 13]: <0.05% | Content [2, 14]: 100.4% | Shape [2, 14]: White solid | Total impurity content [2, 14]: <0.05% | Content [2, 15]: 99.8% | Total impurity content [2, 15]: <0.05% | Content [2, 16]: 99.9% | Shape [2, 16]: White solid | Total impurity content [2, 16]: <0.05% | Content [2, 17]: 98.7% | Total impurity content [2, 17]: <0.05% | Content [2, 18]: 99.1% | Total impurity content [2, 18]: <0.05% | Solubility ([3]; Acetone): ~246000 µg/mL (≈ 601 mM) | Solubility ([3]; Acetone, listed as starting material): greater than 100 mg/mL | Solubility ([3]; Acetonitrile): ~183000 µg/mL (≈ 447 mM) | Solubility ([3]; Butanone): ~173000 µg/mL (≈ 423 mM) | Solubility ([3]; Dichloromethane): ~240000 µg/mL (≈ 586 mM) | Solubility ([3]; Dichloromethane, listed as starting material): greater than 100 mg/mL | Solubility ([3]; Ethanol): ~21000 µg/mL (≈ 51.3 mM) | Solubility ([3]; Ethyl acetate): ~100000 µg/mL (≈ 244 mM) | Solubility ([3]; Isobutanol): ~1700 µg/mL (≈ 4.15 mM) | Solubility ([3]; Isopropanol): ~2500 µg/mL (≈ 6.11 mM) | Solubility ([3]; Isopropanol, listed as starting material): 1000 to 2000 µg/mL | Solubility ([3]; Isopropyl acetate): ~22000 µg/mL (≈ 53.7 mM) | Solubility ([3]; Methanol): ~190000 µg/mL (≈ 464 mM) | Solubility ([3]; Methyl tert-butyl ether): ~2500 µg/mL (≈ 6.11 mM) | Solubility ([3]; Methyl tert-butyl ether, listed as starting material): 1000 to 2000 µg/mL | Solubility ([3]; Tetrahydrofuran): ~215000 µg/mL (≈ 525 mM) | Solubility ([3]; Tetrahydrofuran, listed as starting material): greater than 100 mg/mL | Solubility ([3]; acetonitrile, organic solvent or mixture, thermodynamic from solid, Acetonitrile, read-out: Solubility): > 100000 µg/mL | Solubility ([3]; butanone, organic solvent or mixture, thermodynamic from solid, Butanone, read-out: Solubility): > 100000 µg/mL | Solubility ([3]; ethanol, organic solvent or mixture, thermodynamic from solid, Ethanol, read-out: Solubility): ~20000 µg/mL (≈ 48.8 mM) | Solubility ([3]; ethyl acetate, organic solvent or mixture, thermodynamic from solid, Ethyl acetate, read-out: Solubility): > 100000 µg/mL | Solubility ([3]; isobutanol, organic solvent or mixture, thermodynamic from solid, Isobutanol, read-out: Solubility): 1000 to 2000 µg/mL (≈ 2.44 to 4.88 mM) | Solubility ([3]; isopropyl acetate, organic solvent or mixture, thermodynamic from solid, Isopropyl acetate, read-out: Solubility): ~20000 µg/mL (≈ 48.8 mM) | Solubility ([3]; methanol, organic solvent or mixture, thermodynamic from solid, Methanol, read-out: Solubility): > 100000 µg/mL | Solubility ([3]; water): ~1000 µg/mL (≈ 2.44 mM) | Solubility ([3]; water, thermodynamic from solid, Water, read-out: Solubility): 1000 to 2000 µg/mL (≈ 2.44 to 4.88 mM) | Crystal form before and after the DVS test ([4]; XRPD): not changed | DVS weight gain ([4]; humidity increased from 0% RH to 80% RH, 25° C.): 0.17% | Purity % ([5]; 0 days; HPLC): 99.2% | Crystal form ([5]; 0 days; XRPD): Unchanged | Crystal form ([5]; 40° C./75% RH, 7 days, XRPD): not changed | Purity ([5]; 40° C./75% RH, 7 days; HPLC): not changed | Purity % ([5]; 40° C./75% RH, 7 days; HPLC): 99.4% | Crystal form ([5]; 40° C./75% RH, 7 days; XRPD): Unchanged | Crystal form ([5]; 60° C., 7 days, XRPD): not changed | Purity ([5]; 60° C., 7 days; HPLC): not changed | Purity % ([5]; 60° C., 7 days; HPLC): 99.3% | Crystal form ([5]; 60° C., 7 days; XRPD): Unchanged | solubility at 0.5 h [6, 19]: 170 µg/mL | solubility at 24 h [6, 19]: 110 µg/mL | Solubility ([6]; FaSSIF (simulated intestinal fluid in fasted state), fassif, thermodynamic from solid, FaSSIF (simulated intestinal fluid in fasted state), read-out: Solubility): < 3000 µg/mL | Crystal form / crystallinity in the vehicle ([6]; FaSSIF): nearly amorphous | solubility at 0.5 h [6, 20]: 550 µg/mL | solubility at 24 h [6, 20]: 380 µg/mL | Solubility ([6]; FeSSIF (simulated intestinal fluid in fed state), fessif, thermodynamic from solid, FeSSIF (simulated intestinal fluid in fed state), read-out: Solubility): < 3000 µg/mL | Crystal form / crystallinity in the vehicle ([6]; FeSSIF): nearly amorphous | solubility at 0.5 h [6, 21]: 10900 µg/mL | solubility at 24 h [6, 21]: 10200 µg/mL | Solubility ([6]; SGF (simulated gastric fluid), simulated gastric fluid, thermodynamic from solid, SGF (simulated gastric fluid), read-out: Solubility): > 5000 µg/mL | Solubility ([6]; water): < 3000 µg/mL | Crystal form / crystallinity in the vehicle ([6]; water): not changed | solubility at 0.5 h [6, 22]: 110 µg/mL | solubility at 24 h [6, 22]: 95 µg/mL | Solubility ([6]; water, listed as free base): less than 0.2 mg/mL

[2H]C([2H])([2H])n1nc2c(c1C#N)-c1cnc(N)c(c1)O[C@H](C)c1cc(F)ccc1C(=O)N(C)C2 [compound A crystal form IV, (10R)-7-amino-12-fluoro-2-(methyl-d3)-10,16-dimethyl-15-oxo-10,15,16,17-tetrahydro-2H-8,4-(metheno)pyrazolo[4,3-h][2,5,11]benzoxadiazacyclotetradecine-3-carbonitrile]
Trans-crystallization on competitive slurrying [7]: trans-crystallized to crystal form I
